The values below are quoted from earlier work in US9173940B1, “Mixture of betamethasone and tranilast with a transdermal gel for scar treatment” (PROFESSIONAL COMPOUNDING CENTERS OF AMERICA (PCCA), priority 2014, dated 2015).

The conditions of the series: taken orally.

Turning to `COc1ccc(/C=C/C(=O)Nc2ccccc2C(=O)O)cc1OC` [Tranilast], the oral absorption entry is given as “well-absorbed”.
